The structures appear in SMILES notation.

For orientation: melting point means the temperature of the solid-liquid transition. Regarding `O=C(c1cnc2ccccc2n1)N1CCN(CC(O)COc2cccc3[nH]c4ccccc4c23)CC1` (stereo not shown) [Example 46, 1-(9H-carbazol-4-yloxy)-3-[4-(quinoxaline-2-carbonyl)piperazin-1-yl]propan-2-ol], the melting point lay in the range of 89 to 92 °C.

With `COc1ccc(CC(=O)N2CCN(CC(O)COc3cccc4[nH]c5ccccc5c34)CC2)cc1` (stereo not shown), the melting point is 166 to 169 °C.

The compound `O=C(c1ccc(-c2ccc([N+](=O)[O-])cc2)o1)N1CCN(CC(O)COc2cccc3[nH]c4ccccc4c23)CC1` (stereo not shown) [Example 40, 1-(9H-carbazol-4-yloxy)-3-{4-[5-(4-nitrophenyl)-2-furoyl]piperazin-1 yl}propan-2-ol] registered a melting point of 101 to 104 °C.

`CSc1ccc(CN2CCN(CC(O)COc3cccc4[nH]c5ccccc5c34)CC2)cc1` (stereo not shown) [Example 33, 1-(9H-carbazol-4-yloxy)-3-[4-(4-methylthiobenzyl)piperazin-1-yl]propan-2-ol] showed a melting point of 69 to 71 °C.

Compound `OC(COc1cccc2[nH]c3ccccc3c12)CN1CCN(CC2CC2)CC1` (stereo not shown) [Example 29, 1-(9H-carbazol-4-yloxy)-3-[4-(cyclopropylmethyl)piperazin-1-yl]propan-2-ol] had a melting point of 51 to 56 °C.

For `O=C(Cc1c(F)c(F)c(F)c(F)c1F)N1CCN(CC(O)COc2cccc3[nH]c4ccccc4c23)CC1` (stereo not shown), the melting point lay in the range of 93 to 96 °C.

As to `OC(COc1cccc2[nH]c3ccccc3c12)CN1CCN(Cc2nccs2)CC1` (stereo not shown) [Example 28, 1-(9H-carbazol-4-yloxy)-3-{4-[(thiazol-2-yl)methyl]piperazin-1-yl}propan-2-ol], the melting point lay within 57 to 62 °C.

`OC(COc1cccc2[nH]c3ccccc3c12)CN1CCN(Cc2ccc(Br)cc2F)CC1` (stereo not shown) [Example 32, 1-(9H-carbazol-4-yloxy)-3-[4-(4-bromo-2-fluorobenzyl)piperazin-1-yl]propan-2-ol] had a melting point of 68 to 70 °C.

`COc1cccc2sc(NC(=O)CN3CCN(CC(O)COc4cccc5[nH]c6ccccc6c45)CC3)nc12` (stereo not shown) [Example 61, 2-{4-[3-(9H-carbazol-4-yloxy)-2-hydroxypropyl]-piperazin-1-yl}-N-(4-methoxy-1,3-benzothiazol-2-yl)acetamide] gave a melting point of 289 to 292 °C.

Consider `O=C(CCc1cc2ccccc2[nH]1)N1CCN(CC(O)COc2cccc3[nH]c4ccccc4c23)CC1` (stereo not shown) [Example 51], for which the melting point fell in the range of 112 to 114 °C.

For the compound `O=C(Cc1ccc(F)cc1)N1CCN(CC(O)COc2cccc3[nH]c4ccccc4c23)CC1` (stereo not shown), the melting point was 79 to 81 °C.

In the case of `O=C(Cc1ccc(O)c(F)c1)N1CCN(CC(O)COc2cccc3[nH]c4ccccc4c23)CC1` (stereo not shown), the melting point was in the range of 111 to 113 °C.

`N#Cc1ccc(C(=O)N2CCN(CC(O)COc3cccc4[nH]c5ccccc5c34)CC2)cn1` (stereo not shown) [Example 47, 1-(9H-carbazol-4-yloxy)-3-[4-(6-cyanonicotine-3-carbonyl)piperazin-1-yl]propan-2-ol] gave a melting point of 92 to 95 °C.

In turn, `O=C(c1ccc2c(c1)OCO2)N1CCN(CC(O)COc2cccc3[nH]c4ccccc4c23)CC1` (stereo not shown) [Example 50, 1-(9H-carbazol-4-yloxy)-3-[4-(1,3-benzodioxol-5-ylcarbonyl)piperazin-1-yl]propan-2-ol] had a melting point of 70 to 73 °C.

Regarding `O=C(c1cc2ccccc2o1)N1CCN(CC(O)COc2cccc3[nH]c4ccccc4c23)CC1` (stereo not shown) [Example 54, 3-[4-(1-Benzofuran-2-ylcarbonyl)piperazin-1-yl]-1-(9H-carbazol-4-yloxy)propan-2-ol], the melting point lay in the range of 93 to 96 °C.

Take `O=C(c1ccc(Br)s1)N1CCN(CC(O)COc2cccc3[nH]c4ccccc4c23)CC1` (stereo not shown) [Example 56, 3-[4-(5-Bromothiophene-2-carbonyl)piperazin-1-yl]-1-(9H-carbazol-4-yloxy) propan-2-ol]: the melting point lay in the range of 78 to 80 °C.

Compound `O=C(c1ccc2c(c1)OCO2)N1CCC(NCC(O)COc2cccc3[nH]c4ccccc4c23)CC1` (stereo not shown) [Example 68, 3-{[1-(1,3-Benzodioxol-5-ylcarbonyl)piperidin-4-yl]amino}-1-(9H-carbazol-4-yloxy)propan-2-ol] returned a melting point of 88 to 90 °C.

As for `O=C(c1cccs1)N1CCN(CC(O)COc2cccc3[nH]c4ccccc4c23)CC1` (stereo not shown) [Example 39, 1-(9H-carbazol-4-yloxy)-3-[4-(thiophene-2-carbonyl)piperazin-1-yl]propan-2-ol], the melting point is 80 to 83 °C.

With `O=C(/C=C/c1ccc2c(c1)OCO2)N1CCN(CC(O)COc2cccc3[nH]c4ccccc4c23)CC1` (stereo not shown) [Example 45, 1-(9H-carbazol-4-yloxy)-3-{4-[(2E)-3-(1,3-benzodioxol-5-yl)acryloyl]piperazin-1-yl}propan-2-ol], the melting point lay within 90 to 93 °C.

Turning to `O=C(Cc1c(F)c(F)c(F)c(F)c1F)N1CCC(NCC(O)COc2cccc3[nH]c4ccccc4c23)CC1` (stereo not shown) [Example 69, 1-(9H-carbazol-4-yloxy)-3-{[1-(pentafluorophenyl)acetylpiperidin-4-yl]amino}propan-2-ol], the melting point lay within 80 to 83 °C.

With `O=C(c1ccco1)N1CCN(CC(O)COc2cccc3[nH]c4ccccc4c23)CC1` (stereo not shown) [Example 37, 1-(9H-carbazol-4-yloxy)-3-[4-(2-furoyl)piperazin-1-yl]propan-2-ol], the melting point lay in the range of 85.1 to 89.1 °C.

`COc1cc(OC)c(CN2CCN(CC(O)COc3cccc4[nH]c5ccccc5c34)CC2)c(OC)c1` (stereo not shown) [Example 34, 1-(9H-carbazol-4-yloxy)-3-[4-(2,4,6-trimethoxybenzyl)piperazin-1-yl]propan-2-ol] gave a melting point of 119 to 122 °C.

Consider `O=C(c1cc2ccccc2[nH]1)N1CCN(CC(O)COc2cccc3[nH]c4ccccc4c23)CC1` (stereo not shown) [Example 38, 1-(9H-carbazol-4-yloxy)-3-[4-(1H-indole-2-carbonyl)piperazin-1-yl]propan-2-ol], for which the melting point lay within 215 to 218 °C.

`CC(=O)c1ccc(S(=O)(=O)N2CCN(CC(O)COc3cccc4[nH]c5ccccc5c34)CC2)cc1` (stereo not shown) [Example 75, 3-[4-(4-Acetylphenylsulfonyl)piperazin-1-yl]-1-(9H-carbazol-4-yloxy)propan-2-ol] showed a melting point of 183 to 185 °C.

Take `O=C(CN1CCN(CC(O)COc2cccc3[nH]c4ccccc4c23)CC1)Nc1ccccc1` (stereo not shown) [Example 62, 2-{4-[3-(9H-carbazol-4-yloxy)-2-hydroxypropyl]-piperazin-1-yl}-N-phenyl acetamide]: the melting point was 69 to 71 °C.

The compound `COc1ccc(C(=O)N2CCN(CC(O)COc3cccc4[nH]c5ccccc5c34)CC2)cc1OC` (stereo not shown) [Example 42, 1-(9H-carbazol-4-yloxy)-3-[4-(3,4-dimethoxybenzoyl)piperazin-1-yl]propan-2-ol] returned a melting point of 98 to 101 °C.

Turning to `COc1ccc(CC(=O)N2CCC(NCC(O)COc3cccc4[nH]c5ccccc5c34)CC2)cc1` (stereo not shown) [Example 71, 1-(9H-carbazol-4-yloxy)-3-{[1-(4-methoxyphenylacetyl)piperidin-4-yl]amino}propan-2-ol], the melting point was in the range of 54 to 57 °C.

The compound `O=C(c1cc([N+](=O)[O-])[nH]n1)N1CCN(CC(O)COc2cccc3[nH]c4ccccc4c23)CC1` (stereo not shown) [Example 36, 1-(9H-carbazol-4-yloxy)-3-[4-(5-nitro-1H-pyrazole-3-carbonyl)piperazin-1-yl]propan-2-ol] registered a melting point of 140 to 144 °C.

The record behind these values is patent US7786142B2, “Heterocyclic compounds as pSTAT3/IL-6 inhibitors” (Orchid Research Laboratories, Ltd., priority 2005, dated 2010).
